Legend:
Type in all cases: cell-based
[1] = test system: NCI-H508; assay: Cell growth inhibition assay (Cell Titer Glo, 3 days); details: Homo sapiens, NCl-H508, colon, BRAF G596R, KRAS WT, PIK3CA E545K, mean ± std, read-out: IC50 Single Agent
Protocol: (§1) Human colon tumor lines, Colo205, DLD1, HCC2998, HCT15, HCT8, HT29, KM-12, LS1034, LS174T, NCI-H508, RKO, SW1417, SW1463, SW480, SW837 and T84, and human melanoma line A375 were from ATCC. A375PF11 was derived from A375, 12R5-1, 12R5-3, 12R8-1, 12R8-3, 16R5-2, 16R6-3 and 16R6-4 are single cell clones derived from mixed populations of A375PF11 cells that were selected to grow in Compound A to concentrations of 1200 and 1600 nM. All lines were cultured in RPMI 1640 medium containing 10% fetal bovine serum (FBS).
(§2) All cells were cultured for a minimum of 72 hours prior to cell plating. Cells were assayed in a 96-well tissue culture plate (NUNC 136102) of RPMI medium containing 10% FBS for all cells at 1,000 cells per well. Approximately 24 hours after plating, cells were exposed to ten, three-fold serial dilutions of compound or the combination of the two agents at a constant molar to molar ratio of 1:10 Compound A to Compound B in RPMI media containing 10% FBS. Cells were incubated in the presence of compounds for 3 days. ATP levels were determined by adding Cell Titer Glo® (Promega) according to the manufacturer's protocol. Briefly, Cell Titer Glo® was added each plate, incubated for 30 minutes then luminescent signal was read on the SpectraMax L plate reader with a 0.5 sec integration time.
(§3) Inhibition of cell growth was estimated after treatment with compound or combination of compounds for three days and comparing the signal to cells treated with vehicle (DMSO). Cell growth was calculated relative to vehicle (DMSO) treated control wells. […]

[2] = test system: RKO; assay: as above; details: Homo sapiens, colon, BRAF V600E, KRAS WT, PIK3CA H1047R, mean ± std, read-out: IC50 Single Agent
Protocol: as §1, §2, §3

[3] = test system: SW837; assay: as above; details: Homo sapiens; SW837, colon; BRAF WT, KRAS G12C, PIK3CA WT; mean ± std; read-out: IC50 Single Agent
Protocol: as §1, §2, §3

[4] = test system: HCT15; assay: as above; details: Homo sapiens, HCT-15; HCT15, colon; BRAF WT, KRAS G13D, PIK3CA D549N, E545K; mean ± std; read-out: IC50 Single Agent
Protocol: as §1, §2, §3

[5] = test system: 16R6-4; assay: as above; details: Homo sapiens; 16R6-4, melanoma, Compound A resistant clone; BRAF_V600E, KRAS WT; mean ± std; read-out: IC50 Single Agent
Protocol: as §1, §2, §3

[6] = test system: A375PF11; assay: as above; details: Homo sapiens, A375P-F11, melanoma, BRAF_V600E, KRAS WT, mean ± std, read-out: IC50 Single Agent
Protocol: as §1, §2, §3

[7] = test system: SW480; assay: as above; details: Homo sapiens; SW480, colon; BRAF WT, KRAS G12C, PIK3CA WT; mean ± std; read-out: IC50 Single Agent
Protocol: as §1, §2, §3

[8] = test system: T84; assay: as above; details: Homo sapiens; T84, colon; BRAF WT, KRAS G13D, PIK3CA E542K; mean ± std; read-out: IC50 Single Agent
Protocol: as §1, §2, §3

[9] = test system: 12R8-3; assay: as above; details: Homo sapiens; 12R8-3, melanoma, Compound A resistant clone; BRAF_V600E, KRAS WT; mean ± std; read-out: IC50 Single Agent
Protocol: as §1, §2, §3

[10] = test system: HCC2998; assay: as above; details: Homo sapiens, HCC 2998; HCC2998, colon; BRAF WT, KRAS A146T, PIK3CA WT; mean ± std; read-out: IC50 Single Agent
Protocol: as §1, §2, §3

[11] = test system: LS1034; assay: as above; details: Homo sapiens, LS-1034; LS1034, colon; BRAF WT, KRAS A146T, PIK3CA WT; mean ± std; read-out: IC50 Single Agent
Protocol: as §1, §2, §3

[12] = test system: 12R5-3; assay: as above; details: Homo sapiens; 12R5-3, melanoma, Compound A resistant clone; BRAF_V600E, KRAS WT; mean ± std; read-out: IC50 Single Agent
Protocol: as §1, §2, §3

[13] = test system: LS174T; assay: as above; details: Homo sapiens, colon, BRAF WT, KRAS G12D, PIK3CA H1047R, mean ± std, read-out: IC50 Single Agent
Protocol: as §1, §2, §3

[14] = test system: 16R6-3; assay: as above; details: Homo sapiens; 16R6-3, melanoma, Compound A resistant clone; BRAF_V600E, KRAS WT; mean ± std; read-out: IC50 Single Agent
Protocol: as §1, §2, §3

[15] = test system: SW1463; assay: as above; details: Homo sapiens; SW1463, colon; BRAF WT, KRAS G12C, PIK3CA WT; mean ± std; read-out: IC50 Single Agent
Protocol: as §1, §2, §3

[16] = test system: DLD1; assay: as above; details: Homo sapiens, DLD-1; DLD1, colon; BRAF WT, KRAS G13D, PIK3CA E545K, D549N; mean ± std; read-out: IC50 Single Agent
Protocol: as §1, §2, §3

[17] = test system: Colo205; assay: as above; details: Homo sapiens, COLO 205; Colo205, colon; BRAF V600E, KRAS WT, PIK3CA WT; mean ± std; read-out: IC50 Single Agent
Protocol: as §1, §2, §3

[18] = test system: HCT8; assay: as above; details: Homo sapiens, HCT-8; HCT8, colon; BRAF WT, KRAS G13D, PIK3CA E545K; mean ± std; read-out: IC50 Single Agent
Protocol: as §1, §2, §3

[19] = test system: 16R5-2; assay: as above; details: Homo sapiens; 16R5-2, melanoma, Compound A resistant clone; BRAF_V600E, KRAS WT; mean ± std; read-out: IC50 Single Agent
Protocol: as §1, §2
(§4) Inhibition of cell growth was estimated after treatment with compound or combination of compounds for three days and comparing the signal to cells treated with vehicle (DMSO). Cell growth was calculated relative to vehicle (DMSO) treated control wells.
(§5) Combination effects on potency were evaluated using Combination Index (CI) which was calculated with the back-interpolated IC50 values and the mutually non-exclusive equation derived by Chou and Talalay (1): CI=Da/IC50(a)+Db/IC50(b)+(Da×Db)/(IC50(a)×IC50(b))
(§6) In general, a CI value <0.9, between 0.9 and 1.1, or >1.1 indicates synergy, additivity and antagonism, respectively. In general, the smaller the CI number, the greater is the strength of synergy.
(§7) The combination effects on the response scale were quantified by Excess Over Highest Single Agent (EOHSA) based on the concept of nonlinear blending as described in detail by Peterson and Novick (2007) and Peterson (2010) [(2;3) [Peterson and Novick, 2007; Peterson, 2010]. EOHSA values are defined as increases in improvement (here, in ‘percentage points’ (ppts) difference) produced by the combination over the best single agent at its component dose level for the combination. For single agent and combination treatments, cells were exposed to compounds at a fixed-dose-ratio, and dose response curves were fit to the experimental data and analyzed using regression models. At specified total dose levels of IC50 along the dose response curve, the dose combination (corresponding to IC50) was determined for making EOHSA statistical inferences.

[20] = test system: 12R8-1; assay: as above; details: Homo sapiens; 12R8-1, melanoma, Compound A resistant clone; BRAF_V600E, KRAS WT; mean ± std; read-out: IC50 Single Agent
Protocol: as §1, §2, §4, §5, §6, §7

[21] = test system: 12R5-1; assay: as above; details: Homo sapiens; 12R5-1, melanoma, Compound A resistant clone; BRAF_V600E, KRAS WT; mean ± std; read-out: IC50 Single Agent
Protocol: as §1, §2, §4, §5, §6, §7

[22] = test system: SW1417; assay: as above; details: Homo sapiens; SW1417, colon; BRAF V600E, KRAS WT, PIK3CA WT; mean ± std; read-out: IC50 Single Agent
Protocol: as §1, §2, §4, §5, §6, §7

[23] = test system: HT29; assay: as above; details: Homo sapiens, HT-29; HT29, colon; BRAF V600E, KRAS WT, PIK3CA P449T; mean ± std; read-out: IC50 Single Agent
Protocol: as §1, §2, §4, §5, §6, §7

[24] = test system: KM-12; assay: as above; details: Homo sapiens, KM12; KM-12, colon; BRAF WT, KRAS WT, PIK3CA WT; mean ± std; read-out: IC50 Single Agent
Protocol: as §1, §2, §4, §5, §6, §7

[25] = test system: four colon cell lines with BRAF V600E mutation; assay: Cell growth inhibition assay (Cell Titer Glo, 3 days), summary over lines; details: Homo sapiens; span over the four colon cell lines with BRAF V600E mutation; single agent
Protocol: (§8) Human colon tumor lines, Colo205, DLD1, HCC2998, HCT15, HCT8, HT29, KM-12, LS1034, LS174T, NCI-H508, RKO, SW1417, SW1463, SW480, SW837 and T84, and human melanoma line A375 were from ATCC.
(§9) All cells were cultured for a minimum of 72 hours prior to cell plating. […] Cells were incubated in the presence of compounds for 3 days. ATP levels were determined by adding Cell Titer Glo® (Promega) according to the manufacturer's protocol. Briefly, Cell Titer Glo® was added each plate, incubated for 30 minutes then luminescent signal was read on the SpectraMax L plate reader with a 0.5 sec integration time.
as §4, §5, §6
as §7, with “EOHSA” for “The combination effects on the response scale were quantified by Excess Over Highest Single Agent (EOHSA) based on the concept of nonlinear blending as described in detail by Peterson and Novick (2007) and Peterson (2010) [(2;3) [Peterson and Novick, 2007; Peterson, 2010]. EOHSA”

[26] = test system: 12 colon lines without BRAF V600E mutation; assay: as above; details: Homo sapiens; the other 12 colon lines without BRAF V600E mutation; single agent
Protocol: as §8, §9, §4, §5, §6
as §7, with “EOHSA” for “The combination effects on the response scale were quantified by Excess Over Highest Single Agent (EOHSA) based on the concept of nonlinear blending as described in detail by Peterson and Novick (2007) and Peterson (2010) [(2;3) [Peterson and Novick, 2007; Peterson, 2010]. EOHSA”

[27] = test system: seven Compound A resistant clones derived from the A375PF11 melanoma cell line; assay: Cell growth inhibition assay (Cell Titer Glo, 3 days), summary over clones; details: Homo sapiens, A375P-F11; seven Compound A resistant clones (12R8-3, 12R8-1, 12R5-3, 16R5-2, 16R6-3, 16R6-4, 12R5-1); single agent
Protocol: as §1
All cells were cultured for a minimum of 72 hours prior to cell plating. […] ATP levels were determined by adding Cell Titer Glo® (Promega) according to the manufacturer's protocol. Briefly, Cell Titer Glo® was added each plate, incubated for 30 minutes then luminescent signal was read on the SpectraMax L plate reader with a 0.5 sec integration time.
as §4
Combination effects on potency were evaluated using Combination Index (CI) which was calculated with the back-interpolated IC50 values and the mutually non-exclusive equation derived by Chou and Talalay (1): CI=Da/IC50(a)+Db/IC50(b)+(Da×Db)/(IC50(a)×IC50(b)) […]

SMILES	IC50 [1] [µM]	IC50 [2] [µM]	IC50 [3] [µM]	IC50 [4] [µM]	IC50 [5] [µM]	IC50 [6] [µM]	IC50 [7] [µM]	IC50 [8] [µM]	IC50 [9] [µM]	IC50 [11] [µM]	IC50 [12] [µM]	IC50 [13] [µM]	IC50 [14] [µM]	IC50 [15] [µM]	IC50 [16] [µM]	IC50 [17] [µM]	IC50 [18] [µM]	IC50 [19] [µM]	IC50 [20] [µM]	IC50 [21] [µM]	also measured
CC(C)(C)c1nc(-c2cccc(NS(=O)(=O)c3c(F)cccc3F)c2F)c(-c2ccnc(N)n2)s1 [Compound A, N-{3-[5-(2-Amino-4-pyrimidinyl)-2-(1,1-dimethylethyl)-1,3-thiazol-4-yl]-2-fluorophenyl}-2,6-difluorobenzenesulfonamide]	> 10	3.14 ± 3.47	5.44 ± 7.69	> 10	> 10	0.063	> 10	> 10	> 10	> 10	> 10	> 10	> 10	> 10	> 10	0.018 ± 0.003	> 10	> 10	> 10	> 10	IC50 [10]: > 10 µM; IC50 [22]: 0.101 ± 0.031 µM; IC50 [23]: 0.028 ± 0.007 µM; IC50 [24]: > 10 µM; IC50 [25]: 0.018 to 3.32 µM; IC50 [26]: > 5 µM
Cn1ncc(Cl)c1-c1cc(C(=O)N[C@H](CN)Cc2ccc(F)c(F)c2)oc1Cl [Compound B, N-{(1S)-2-amino-1-[(3,4-difluorophenyl)methyl]ethyl}-5-chloro-4-(4-chloro-1-methyl-1H-pyrazol-5-yl)-2-furancarboxamide]	0.234 ± 0.247	0.29 ± 0.07	> 10	4.21 ± 0.834	> 10	> 10	5.62 ± 1.85	> 10	> 10	6.39 ± 3.55	> 10	3.75 ± 0.945	> 10	5.23 ± 7.4	> 10	0.908 ± 0.605	0.527 ± 0.036	7.05 ± 1.33	> 10	> 10	IC50 [27]: ≥ 7 µM; IC50 [22]: 2.59 ± 1.76 µM; IC50 [23]: 0.503 ± 0.073 µM; IC50 [24]: 1.41 ± 0.961 µM; IC50 [25]: 0.29 to 2.59 µM
